Source: paper PMC11292009, “Mapping protein binding sites by photoreactive fragment pharmacophores” (Communications Chemistry, 2024)
Where “and” joins values, the source holds several entries; their conditions need not be identical. Identical values can stand only once.

Legend:
[1] = system: carbonic anhydrase II (CA); assay: Intact protein MS photoaffinity labeling screen, carbonic anhydrase; assay type: binding; details: intact protein MS after 10 min irradiation
Method in brief: (§1)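 Fragments tested one per well, each incubated 15 min with protein to form non-covalent complexes before photo-crosslinking. Labeling read directly by intact protein MS as mass additions matching fragment adducts, expressed as labeling %.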

[2] = system: T1, Kras G12D protein / SOS1 exchange domain; assay: Kras-SOS exchange assay (MANT-GDP); assay type: biochemical
T1 construct: Cytoskeleton, Inc. (SOS1 exchange domain only) GE02
Description: MANT-GDP loading assay: Kras^G12D protein was first buffer exchanged into low magnesium buffer (20 mM HEPES-NaOH (pH 7.5), 50 mM NaCl, 0.5 mM MgCl2) using a NAP5 column (catalog no.: 17-0583-1, Cytiva). The proteins were then incubated with 20-fold molar excess of N-methylanthraniloyl (MANT)-GDP (catalog no.: 69244, Sigma-Aldrich) in loading buffer (50 mM NaCl, 20 mM HEPES-NaOH [pH 7.5], 0.5 mM MgCl2, 10 mM EDTA, and 1 mM Dithiothreitol (DTT)) in a total volume of 200 μL at 20 °C for 90 min. The reaction was stopped by adding MgCl2 to a final concentration of 10 mM, then incubated at 20 °C for 30 min. The unbound MANT-GDP was removed using the NAP-5 column equilibrated with nucleotide exchange buffer (40 mM HEPES-NaOH (pH 7.5), 50 mM NaCl, 10 mM MgCl2, 2 mM DTT).
MANT-GDP exchange assay: First the MANT-GDP bound Kras G12D protein (in a final 1 μM molar concentration) was preincubated with the inhibitor molecules for 60 min. After the preincubation the samples were exposed to UV light for 10 min with a wavelength of 366 nm. The UV-treated MANT-GDP Kras-inhibitor mix was loaded into a black 384 well microplate. The nucleotide exchange reaction was initiated by adding 100 fold molar excess of GppNHp (catalog no.: G0635, Sigma-Aldrich), a non-hydrolyzable GTP analog and the SOS1 exchange domain (catalog no.: GE02, Cytoskeleton, Inc.) protein in 0.5 μM final concentration. The change in fluorescence intensity was measured every 30 s in room temperature for 60 min on an EnSpire plate reader (PerkinElmer, Inc.). The measured fluorescence values were fitted to a single exponential function by using GraphPad Prism 8 software.

BRD4-BD1 = system: T2, BRD4-BD1; assay: Intact MS photoaffinity labeling screen, BRD4-BD1 (302 nm, LCMS-TOF); assay type: binding; details: for MS labeling percentage, BRD4: BRD4-BD1, 302 nm 10 min
T2 construct: screened the PhP library against the first bromodomain of BRD4 (BRD4-BD1); purchased GSK/GenScript
Method in brief: (§2)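 Labeling detected as mass additions in deconvoluted intact-protein LCMS-TOF spectra. Protein at 1 μM in PBS was first mixed with one fragment per well on ice for 15 min, followed by 10 min UV exposure at 302 nm.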

[3] = system: CA, Lyo, Myo, BRD4-BD1, KRas G12D, STAT5B-NTD; assay: Intact MS labeling compared over all protein targets; assay type: binding; details: for Labeling of the other protein targets (vs. preferred target): each of the other targets
Description: Using a plate-based format with one fragment per well, each fragment was incubated with the target proteins for 15 min to allow for the formation of non-covalent interactions. The plate was then irradiated at 302 or 365 nm for 10 min to enable the bound fragments to crosslink to the protein[26]. Finally, the results were directly analyzed from the plate using intact protein mass spectrometry by observing the mass additions that correspond to successful labeling (Fig. 2c, for labeling % values see Supplementary data). The library was first characterized against three benchmark proteins like carbonic anhydrase (CA), lysozyme (Lyo), and myoglobin (Myo).
The PhP library was screened against BRD4-BD1 and KRas^G12D as follows. Using a Labcyte Echo® 555 Liquid Handler, 150 nL of fragment solution (20 mM) was transferred into a Greiner 384 low-volume plate (white) to prepare the probe plate. The probe plate was placed on ice. 15 μL of protein stock solution (1 μM BRD4-BD1 (GSK/GenScript) or KRas^G12D (GSK/GenScript) in PBS buffer) was dispensed into wells containing fragments. The plate was left on ice for 15 min for incubation, then irradiated at 302 nm for 10 min, and centrifuged (1000 rpm, 1 min) to remove any bubbles. The plate was then analyzed by LCMS-TOF mass spectrometry (Agilent 1200 series liquid chromatography with Agilent Bio-HPLC PLRP-S (1000 Å, 5 µm × 50 mm × 1.0 mm, PL1312-1502) reverse phase HPLC column at 70 °C equipped with an Agilent G6224 time-of-flight (ToF), see Supplementary Note 2 for the full protocols). The deconvoluted spectra were analyzed using R Studio software.
During the analysis, the column temperature was maintained at a constant 60 °C, and a sample volume of 3 µL was injected for each analysis. Data acquisition was conducted in positive ion mode within the m/z 100–2000 (mass-to-charge ratio) range. For the full protocol and spectra of the hits, see Supplementary Note 2.

KRas^G12D = system: T3, KRas^G12D; assay: Intact MS photoaffinity labeling screen, KRas G12D (302 nm, LCMS-TOF); assay type: binding; details: for MS labeling percentage, KRas: KRas G12D, 302 nm 10 min
T3 construct: purchased GSK/GenScript
Method in brief: as §2

myoglobin (Myo) = assay: Intact protein MS photoaffinity labeling screen, myoglobin; assay type: binding; details: intact protein MS after 10 min irradiation
Method in brief: as §1

STAT5B-NTD [4] = system: T4, STAT5B-NTD; assay: Intact MS labeling screen, STAT5B-NTD conjugated with photocatalyst Ir-G2-PEG3-COOH (450 nm); assay type: binding; details: 450 nm 10 min;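 further: 0.14 µL of 100 mM DMSO fragment stock added to the conjugate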
T4 construct: His-SUMO (N, cleaved yes); made in house; host or cells: E. coli BL21 RILP
Method in brief: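 Ir-G2-PEG3-COOH photocatalyst (10 eq) activated 30 min with EDC/NHS/BOP, then conjugated to STAT5B-NTD (7 µM) overnight at RT or 1 h at 37 °C in dark. PhP added, 1 h dark, then 450 nm irradiation 10 min at 4 °C; labeling read by intact LC-MS, positive ion mode, m/z 100–2000.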

STAT5B-NTD [5] = system: T4, STAT5B-NTD; assay: Intact MS photoaffinity labeling screen, STAT5B-NTD (365 nm, UHPLC-MS); assay type: binding; details: for MS labeling percentage, STAT5B: STAT5B-NTD, 365 nm 10 min, no photocatalyst;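 on MS labeling percentage, STAT5B: 0.17 µL of 100 mM DMSO fragment stock added to the protein sample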
Method in brief: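 UV irradiation at 365 nm for 10 min at 4 °C. Labeling read by intact-protein UHPLC-MS, positive ion mode, m/z 100–2000.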

lysozyme (Lyo) = assay: Intact protein MS photoaffinity labeling screen, lysozyme; assay type: binding; details: intact protein MS after 10 min irradiation
Method in brief: as §1

[6] = sheet PhP, experimental hit status flag given as 0 or 1
[7] = PhP library sheet "PhP", binary flag printed as 0 or 1, key not given
[8] = hit status flag, 1 = hit, 0 = no hit

CC1(CCC(=O)Nc2ccc(-c3ncccc3O)cc2)N=N1 [PhP060, N1=NC1(C)CCC(=O)Nc2ccc(cc2)-c3ncccc3O]
MS labeling percentage, CA [1]: 17.3% | Effect on SOS1-mediated nucleotide exchange of KRas ([2]; prior to irradiation): no effect | Effect on SOS1-mediated nucleotide exchange of KRas ([2]; upon irradiation (366 nm, 10 min)): no effect | BRD4-BD1 (experimental hit status) (BRD4-BD1; [6]): 0 | Number of proteins labeled ([3]; of the six protein targets): four | MS labeling percentage, KRas (KRas^G12D): 13.7% | KRAS-G12D (experimental hit status) (KRas^G12D; [6]): 1 | MS labeling percentage, Myo (myoglobin (Myo)): 24.9% | MS labeling percentage, STAT5B+photocat (STAT5B-NTD [4]): 8.8% | MS labeling percentage, STAT5B (STAT5B-NTD [5]): 0% | STAT5B-NTD (experimental hit status) (STAT5B-NTD [5]; [6]): 0 | MS labeling percentage, Lyo (lysozyme (Lyo)): 16.1%

CCCc1nn(C)c(C(N)=O)c1NC(=O)CCC1(C)N=N1 [PhP082, CCCc1nn(C)c(C(=O)N)c1NC(=O)CCC2(C)N=N2]
MS labeling percentage, CA [1]: 0% | MS labeling percentage, BRD4 (BRD4-BD1): 0.2% | BRD4-BD1 (experimental hit status) (BRD4-BD1; [7]): 0 | Labeling of the other protein targets (vs. preferred target) [3]: > 0.5% and < 0.5% | MS labeling percentage, KRas (KRas^G12D): 0% | KRAS-G12D (experimental hit status) (KRas^G12D; [7]): 0 | MS labeling percentage, Myo (myoglobin (Myo)): 52.9% | MS labeling percentage, STAT5B+photocat (STAT5B-NTD [4]): 2.4% | STAT5B-NTD (experimental hit status) (STAT5B-NTD [5]; [7]): 0 | MS labeling percentage, STAT5B (STAT5B-NTD [5]): 0% | MS labeling percentage, Lyo (lysozyme (Lyo)): 0%

COc1ccc(NS(=O)(=O)c2cccc(NC(=O)CCC3(C)N=N3)c2)cc1 [PhP087, COc1ccc(cc1)NS(=O)(=O)c2cccc(c2)NC(=O)CCC3(C)N=N3]
MS labeling percentage, CA [1]: 18.9% | MS labeling percentage, BRD4 (BRD4-BD1): 0.7% | BRD4-BD1 (experimental hit status) (BRD4-BD1; [7]): 0 | Number of targets labeled in higher than 10% amount ([3]; of the six protein targets): two | MS labeling percentage, KRas (KRas^G12D): 12.6% | KRAS-G12D (experimental hit status) (KRas^G12D; [7]): 0 | MS labeling percentage, Myo (myoglobin (Myo)): 3.2% | MS labeling percentage, STAT5B+photocat (STAT5B-NTD [4]): 8% | STAT5B-NTD (experimental hit status) (STAT5B-NTD [5]; [7]): 0 | MS labeling percentage, STAT5B (STAT5B-NTD [5]): 2.9% | MS labeling percentage, Lyo (lysozyme (Lyo)): 1.5%

CC1(CCC(=O)NCc2ccc(-c3ccc(O)cc3)cc2)N=N1 [PhP088, N1=NC1(C)CCC(=O)NCc2ccc(cc2)-c3ccc(O)cc3]
MS labeling percentage, CA [1]: 0% | MS labeling percentage, BRD4 (BRD4-BD1): 0.5% | BRD4-BD1 (experimental hit status) (BRD4-BD1; [7]): 0 | Labeling of the other protein targets (vs. preferred target) [3]: > 1% and < 1% | MS labeling percentage, KRas (KRas^G12D): 0.2% | KRAS-G12D (experimental hit status) (KRas^G12D; [7]): 0 | MS labeling percentage, Myo (myoglobin (Myo)): 0.2% | MS labeling percentage, STAT5B+photocat (STAT5B-NTD [4]): 5.7% | STAT5B-NTD (experimental hit status) (STAT5B-NTD [5]; [7]): 0 | MS labeling percentage, STAT5B (STAT5B-NTD [5]): 0% | MS labeling percentage, Lyo (lysozyme (Lyo)): 4.8%

Cc1nc(CCNC(=O)CCC2(C)N=N2)sc1C [PhP092, Cc1nc(sc1C)CCNC(=O)CCC2(C)N=N2]
MS labeling percentage, CA [1]: 0.3% | MS labeling percentage, BRD4 (BRD4-BD1): 0.5% | BRD4-BD1 (experimental hit status) (BRD4-BD1; [7]): 0 | Labeling of the other protein targets (vs. preferred target) [3]: > 1% and < 1% | MS labeling percentage, KRas (KRas^G12D): 0.1% | KRAS-G12D (experimental hit status) (KRas^G12D; [7]): 0 | MS labeling percentage, Myo (myoglobin (Myo)): 0.1% | MS labeling percentage, STAT5B+photocat (STAT5B-NTD [4]): 0.8% | STAT5B-NTD (experimental hit status) (STAT5B-NTD [5]; [7]): 0 | MS labeling percentage, STAT5B (STAT5B-NTD [5]): 0% | MS labeling percentage, Lyo (lysozyme (Lyo)): 35.6%

COc1ccc(-c2cnc(CNC(=O)CCC3(C)N=N3)[nH]2)cc1 [PhP098, COc1ccc(cc1)-c2cnc([nH]2)CNC(=O)CCC3(C)N=N3]
MS labeling percentage, CA [1]: 1.6% | MS labeling percentage, BRD4 (BRD4-BD1): 4.3% | BRD4-BD1 (experimental hit status) (BRD4-BD1; [8]): 0 | Labeling efficiency over all protein targets (mean ± spread) [3]: 3.3 ± 3.1% | MS labeling percentage, KRas (KRas^G12D): 9.6% | KRAS-G12D (experimental hit status) (KRas^G12D; [8]): 0 | MS labeling percentage, Myo (myoglobin (Myo)): 2.3% | MS labeling percentage, STAT5B+photocat (STAT5B-NTD [4]): 3.1% | MS labeling percentage, STAT5B (STAT5B-NTD [5]): 1.4% | STAT5B-NTD (experimental hit status) (STAT5B-NTD [5]; [8]): 0 | MS labeling percentage, Lyo (lysozyme (Lyo)): 0.5%

CC1(CCC(=O)NCc2ccc(CNC(=O)OC(C)(C)C)cc2)N=N1 [PhP099, CC(C)(C)OC(=O)NCc1ccc(cc1)CNC(=O)CCC2(C)N=N2]
MS labeling percentage, CA [1]: 12.8% | MS labeling percentage, BRD4 (BRD4-BD1): 1.1% | BRD4-BD1 (experimental hit status) (BRD4-BD1; [8]): 0 | Labeling efficiency over all protein targets (mean ± spread) [3]: 5.2 ± 4% | MS labeling percentage, KRas (KRas^G12D): 7.7% | KRAS-G12D (experimental hit status) (KRas^G12D; [8]): 0 | MS labeling percentage, Myo (myoglobin (Myo)): 4.3% | MS labeling percentage, STAT5B+photocat (STAT5B-NTD [4]): 19.3% | MS labeling percentage, STAT5B (STAT5B-NTD [5]): 2.9% | STAT5B-NTD (experimental hit status) (STAT5B-NTD [5]; [8]): 0 | MS labeling percentage, Lyo (lysozyme (Lyo)): 2.2%
